Assay results from publication PMC10328743, “5-Nitro-3-(2-(4-phenylthiazol-2-yl)hydrazineylidene)indolin-2-one derivatives inhibit HIV-1 replication by a multitarget mechanism of action” (Frontiers in Cellular and Infection Microbiology, 2023).
Like-named read-outs stand apart in the source and are kept apart here.

Tests used:
HIV-1 RT-associated RDDP = target: T1, HIV-1 RT-associated RDDP (Human immunodeficiency virus type 1 group M subtype B, UniProt P04585); test: HIV-1 RNA-dependent DNA polymerase activity determination; type: biochemical
T1 construct: The 1:1 ratio between the p66/p51 subunits was also verified; His tag (implied only by Ni-NTA IMAC purification); made in house; host or cells: Escherichia coli M15
Method: (§1) Escherichia coli strain M15 containing the p6HRT-prot vector (provided by Stuart Le Grice laboratory (NCI Frederick)) was grown to an optical density at 600 nm of 0.7 and induced with 1.7 mM of isopropyl β-D-1-thiogalactopyranoside (IPTG) for 4 h. Protein purification was carried out with a BioLogic LP system (Bio-Rad, Hercules, CA, USA) using a combination of immobilized metal affinity chromatography (IMAC) and ion exchange chromatography. Cell pellets were resuspended in lysis buffer (50 mM of sodium phosphate buffer, pH 7.8, containing 0.5 mg/mL of lysozyme), incubated on ice for 20 min, and, after the addition of NaCl to a final concentration of 0.3 M, were sonicated and centrifuged at 30,000 ×g for 1 h. The supernatant was loaded onto a Ni^2+-NTA-Sepharose column pre-equilibrated with loading buffer (50 mM of sodium phosphate buffer, pH 7.8, containing 0.3 M of NaCl, 10% glycerol, and 10 mM of imidazole) and washed thoroughly with wash buffer (50 mM of sodium phosphate buffer, pH 6.0, containing 0.3 M of NaCl, 10% glycerol, and 80 mM of imidazole). RT was eluted with an imidazole gradient in the wash buffer (0–0.5 M). Fractions were collected, and protein purity was checked by sodium dodecyl sulfate–polyacrylamide gel electrophoresis (SDS-PAGE) and found to be higher than 90%. The 1:1 ratio between the p66/p51 subunits was also verified. Enzyme-containing fractions were pooled and diluted 1:1 with 50 mM of sodium phosphate buffer, pH 7.0, containing 10% glycerol, and then loaded into a Hi-trap heparin HP GE (Healthcare LifeScience) pre-equilibrated with 10 column volumes of loading buffer (50 mM of sodium phosphate buffer, pH 7.0, containing 10% glycerol, and 150 mM of NaCl). The column was then washed with loading buffer, and the RT was eluted with Elute Buffer 2 (50 mM of sodium phosphate, pH 7.0, 10% glycerol, 1 M of NaCl). Fractions were collected, and the protein was dialyzed and stored in a buffer containing 50 mM of Tris-HCl, pH 7.0, 25 mM of NaCl, 1 mM of EDTA, and 50% glycerol. Catalytic activities and protein concentrations were determined. Enzyme-containing fractions were pooled, and aliquots were stored at −80°C.
RDDP activity was measured as previously reported in 25-µl volume containing 60 mM of Tris‐HCl buffer, pH 8.1, 8 mM of MgCl2, 60 mM of KCl, 13 mM of DTT, 2.5 µM of poly(A)-oligo(dT), 100 µM of dTTP, increasing concentrations of inhibitors, whose dilution were made in water, and different amounts of enzymes according to a linear range of the dose–response curve. The reaction mixture was incubated for 30 min at 37°C and then stopped by the addition of EDTA. Reaction products were detected by pico green addition and measured with a multilabel counter plate reader Victor 3, equipped with filters for 502/523 nm.

[1] = target: T2, HIV-1 RT-associated RNase H (Human immunodeficiency virus type 1 group M subtype B, UniProt P04585); test: HIV-1 DNA polymerase-independent RNase H activity determination; type: biochemical
T2 construct: The 1:1 ratio between the p66/p51 subunits was also verified; His tag (implied only by Ni-NTA IMAC purification); made in house; host or cells: Escherichia coli M15
Method: as §1
HIV RT-associated RNase H activity was measured as described ([Corona et al., 2016b]) in a 100-µl reaction volume containing 50 mM of Tris-HCl buffer, pH 7.8, 6 mM of MgCl2, 1 mM of dithiothreitol (DTT), 80 mM of KCl, 0.25 µM of hybrid RNA/DNA 5′-[…]-Fluorescin-3′ (high-performance liquid chromatography (HPLC), dry, QC: Mass Check) (available from Metabion) 5′-Dabcyl-[…]-3′ (HPLC, dry, QC: Mass Check), increasing concentrations of inhibitors, whose dilution were made in water, and different amounts of enzymes according to a linear range of the dose–response curve. The reaction mixture was incubated for 1 h at 37°C and stopped by the addition of EDTA, and products were measured with a multilabel counter plate reader Victor 3 equipped with filters for 490/528 nm.

HIV-1 = HIV-1 replication inhibition in MT4 cells; type: cell-based
Method: (§2) HIV-1 replication was carried out in MT4 cells as previously reported ([Corona et al., 2016a]) using a molecular clone derived from the pNL4-3 ([Thierry et al., 2015]). A total of 120 ng of p24^gag antigen per 10^6 cells, corresponding to a multiplicity of infection (m.o.i.) of 0.3, was used for infection. […] Flow cytometry analysis was performed on a FACSCalibur flow cytometer (BD Biosciences, San Jose, CA, USA), and the results were analyzed using the […] software.

[2] = Viability of infected MT4 cells (cytotoxicity); type: cell-based; details: human, infected MT4 cells viability, three independent experiments, average ± standard deviation
Method: as §2

[3] = wt HIV-1 RT, three independent experiments, average ± standard deviation, read-out: RDDP IC50
[4] = wt HIV-1 RT, three independent experiments, average ± standard deviation
[5] = wt HIV-1 RT, three independent experiments, average ± standard deviation, read-out: RNase H IC50
[6] = Human immunodeficiency virus 1, MT4, viral replication in MT4 cells, three independent experiments, average ± standard deviation, read-out: HIV-1 EC50
[7] = Human immunodeficiency virus 1, MT4, read-out: HIV-1 EC50

SMILES	IC50 (HIV-1 RT-associated RDDP; [3])	RNase H IC50 [1, 4]	IC50 [1, 5]	EC50 (HIV-1; [6])	CC50 ([2]; MT4 cells infected with HIV-1)	IC50 (HIV-1 RT-associated RDDP)	EC50 (HIV-1; [7])	CC50 [2]	IC50 [1]
Cn1c(-c2ccc(C#N)cc2)cs/c1=N\N=C1/C(=O)Nc2ccc([N+](=O)[O-])cc21 [6c]	12.1 ± 1.6 µM	active only toward the RDDP function	100 ± 5 µM	–	–	–	–	–	–
COc1ccc(-c2csc(N/N=C3\C(=O)Nc4ccc([N+](=O)[O-])cc43)n2)cc1 [11a]	14.5 ± 0.5 µM	–	8.5 ± 0.6 µM	> 100 µM	> 100 µM	–	–	–	–
O=C1Nc2ccc(Cl)cc2/C1=N/Nc1nc(-c2ccc(-c3ccccc3)cc2)cs1 [5b]	38 ± 5 µM	–	13.2 ± 1.6 µM	–	–	–	–	–	–
O=C1Nc2ccc(Cl)cc2/C1=N/Nc1nc(-c2ccc(Br)cc2)cs1 [3b]	8.3 ± 0.6 µM	–	4.4 ± 0.1 µM	> 95 µM	95 ± 14 µM	–	–	–	–
O=C1Nc2ccc([N+](=O)[O-])cc2/C1=N/Nc1nc(-c2ccc(F)cc2)cs1 [2a]	9.5 ± 0.5 µM	–	5.1 ± 2 µM	> 100 µM	> 100 µM	–	–	–	–
O=C1Nc2ccc([N+](=O)[O-])cc2/C1=N/Nc1nc(-c2ccc(Cl)c(Cl)c2)cs1 [9a]	11.5 ± 0.5 µM	–	6.5 ± 0.5 µM	> 100 µM	> 100 µM	–	–	–	–
COc1ccc(-c2cs/c(=N\N=C3/C(=O)Nc4ccc([N+](=O)[O-])cc43)n2C)cc1 [11c]	11.2 ± 2.2 µM	–	4 ± 1.4 µM	> 2 µM	2 ± 0.4 µM	–	–	–	–
N#Cc1ccc(-c2csc(N/N=C3\C(=O)Nc4ccc([N+](=O)[O-])cc43)n2)cc1 [6a]	9.3 ± 0.3 µM	–	6 ± 0.1 µM	> 100 µM	> 100 µM	–	–	–	–
Cc1ccc(-c2csc(NN=C3C(=O)Nc4ccc(Cl)cc43)n2)cc1 [10b]	18 ± 0.7 µM	–	10 ± 1.4 µM	> 100 µM	> 100 µM	–	–	–	–
O=C1Nc2ccc([N+](=O)[O-])cc2/C1=N/Nc1nc(-c2ccccc2)cs1 [12a]	–	–	6 ± 1 µM	> 100 µM	> 100 µM	13 ± 2 µM	–	–	–
Cn1c(-c2ccc([N+](=O)[O-])cc2)cs/c1=N\N=C1/C(=O)Nc2ccc([N+](=O)[O-])cc21 [4c]	–	–	–	–	–	6 ± 0.5 µM	> 5.5 µM	5.5 ± 0.9 µM	1.9 ± 0.2 µM
Cn1c(-c2ccc(F)cc2)cs/c1=N\N=C1/C(=O)Nc2ccc([N+](=O)[O-])cc21 [2c]	21 ± 1 µM	–	5.6 ± 0.6 µM	> 7 µM	7 ± 1.6 µM	–	–	–	–
COc1ccc(-c2csc(N/N=C3\C(=O)Nc4ccc(Cl)cc43)n2)cc1 [11b]	16.2 ± 2.8 µM	–	7 ± 1 µM	> 70 µM	70 ± 9 µM	–	–	–	–
O=C1Nc2ccc([N+](=O)[O-])cc2/C1=N/Nc1nc(-c2ccc([N+](=O)[O-])cc2)cs1 [4a]	–	–	–	–	–	21 ± 3 µM	> 100 µM	> 100 µM	7.6 ± 1.4 µM
O=C1Nc2ccc(Cl)cc2C1=NNc1nc(-c2ccc(Cl)cc2)cs1 [1b]	30 ± 7.5 µM	–	12 ± 2.3 µM	> 100 µM	> 100 µM	–	–	–	–
Cn1c(-c2ccccc2)cs/c1=N\N=C1/C(=O)Nc2ccc([N+](=O)[O-])cc21 [12c]	8.1 ± 0.1 µM	–	3.6 ± 0.8 µM	> 10 µM	10 ± 1.2 µM	–	–	–	–

SMILES	IC50 (HIV-1 RT-associated RDDP; [3])	RNase H IC50 [1, 4]	IC50 [1, 5]	EC50 (HIV-1; [6])	CC50 ([2]; MT4 cells infected with HIV-1)	IC50 (HIV-1 RT-associated RDDP)	EC50 (HIV-1; [7])	CC50 [2]	IC50 [1]
O=C1Nc2ccc(Cl)cc2/C1=N/Nc1nc(-c2cccc([N+](=O)[O-])c2)cs1 [8b]	72 ± 13 µM	–	22 ± 1 µM	–	–	–	–	–	–
Cn1c(-c2ccc(Cl)cc2)cs/c1=N\N=C1/C(=O)Nc2ccc([N+](=O)[O-])cc21 [1c]	24 ± 3 µM	–	8.2 ± 1 µM	> 42 µM	42 ± 8 µM	–	–	–	–
O=C1Nc2ccc([N+](=O)[O-])cc2/C1=N/Nc1nc(-c2ccc(-c3ccccc3)cc2)cs1 [5a]	12 ± 3 µM	–	7.1 ± 0.1 µM	> 100 µM	> 100 µM	–	–	–	–
O=C1Nc2ccc(Cl)cc2/C1=N/Nc1nc(-c2ccc(F)cc2)cs1 [2b]	7.5 ± 1.5 µM	–	4.5 ± 0.2 µM	> 56 µM	56 ± 6 µM	–	–	–	–
O=C1Nc2ccc(Cl)cc2/C1=N/Nc1nc(-c2ccc([N+](=O)[O-])cc2)cs1 [4b]	14.9 ± 2.7 µM	–	15.3 ± 1.5 µM	> 50 µM	50 ± 12 µM	–	–	–	–
Cn1c(-c2ccc(Cl)c(Cl)c2)cs/c1=N\N=C1/C(=O)Nc2ccc([N+](=O)[O-])cc21 [9c]	15.1 ± 0.5 µM	–	1.9 ± 0.7 µM	> 5 µM	5 ± 1.3 µM	–	–	–	–
O=C1Nc2ccc(Cl)cc2/C1=N/Nc1nc(-c2ccccc2)cs1 [12b]	9.4 ± 1.1 µM	–	5.4 ± 0.6 µM	> 70 µM	70 ± 5 µM	–	–	–	–
O=C1Nc2ccc([N+](=O)[O-])cc2/C1=N/Nc1nc(-c2ccc(F)cc2F)cs1 [7a]	11.5 ± 0.5 µM	–	6 ± 0.1 µM	–	–	–	–	–	–
Cn1c(-c2cccc([N+](=O)[O-])c2)cs/c1=N\N=C1/C(=O)Nc2ccc([N+](=O)[O-])cc21 [8c]	8.7 ± 1.5 µM	active only toward the RDDP function	100 ± 20 µM	–	–	–	–	–	–
Cn1c(-c2ccc(-c3ccccc3)cc2)cs/c1=N\N=C1/C(=O)Nc2ccc([N+](=O)[O-])cc21 [5c]	11.4 ± 2.2 µM	–	6.1 ± 1.1 µM	> 7 µM	7 ± 1.4 µM	–	–	–	–
Cc1ccc(-c2cs/c(=N\N=C3/C(=O)Nc4ccc([N+](=O)[O-])cc43)n2C)cc1 [10c]	16.9 ± 2.3 µM	–	6.8 ± 1.4 µM	> 10 µM	10 ± 2.7 µM	–	–	–	–
N#Cc1ccc(-c2csc(N/N=C3\C(=O)Nc4ccc(Cl)cc43)n2)cc1 [6b]	34 ± 6 µM	–	7.8 ± 0.1 µM	> 95 µM	95 ± 5 µM	–	–	–	–
O=C1Nc2ccc(Cl)cc2/C1=N/Nc1nc(-c2ccc(F)cc2F)cs1 [7b]	10 ± 1 µM	–	6 ± 1.5 µM	–	–	–	–	–	–
O=C1Nc2ccc([N+](=O)[O-])cc2/C1=N/Nc1nc(-c2cccc([N+](=O)[O-])c2)cs1 [8a]	18.5 ± 0.5 µM	–	6.5 ± 0.5 µM	–	–	–	–	–	–
Cn1c(-c2ccc(Br)cc2)cs/c1=N\N=C1/C(=O)Nc2ccc([N+](=O)[O-])cc21 [3c]	19.5 ± 3.3 µM	–	7.7 ± 1.2 µM	> 25 µM	25 ± 3.1 µM	–	–	–	–
